In the Kinase Knowledgebase extract (Sharma et al. 2016):
pIC50: −log10 of the molar value.

target: PIK3CG (human) (UniProt P48736); experiment: Assessment of PIK3CG Kinase Activity
Sequence (P48736 whole entry, looked up): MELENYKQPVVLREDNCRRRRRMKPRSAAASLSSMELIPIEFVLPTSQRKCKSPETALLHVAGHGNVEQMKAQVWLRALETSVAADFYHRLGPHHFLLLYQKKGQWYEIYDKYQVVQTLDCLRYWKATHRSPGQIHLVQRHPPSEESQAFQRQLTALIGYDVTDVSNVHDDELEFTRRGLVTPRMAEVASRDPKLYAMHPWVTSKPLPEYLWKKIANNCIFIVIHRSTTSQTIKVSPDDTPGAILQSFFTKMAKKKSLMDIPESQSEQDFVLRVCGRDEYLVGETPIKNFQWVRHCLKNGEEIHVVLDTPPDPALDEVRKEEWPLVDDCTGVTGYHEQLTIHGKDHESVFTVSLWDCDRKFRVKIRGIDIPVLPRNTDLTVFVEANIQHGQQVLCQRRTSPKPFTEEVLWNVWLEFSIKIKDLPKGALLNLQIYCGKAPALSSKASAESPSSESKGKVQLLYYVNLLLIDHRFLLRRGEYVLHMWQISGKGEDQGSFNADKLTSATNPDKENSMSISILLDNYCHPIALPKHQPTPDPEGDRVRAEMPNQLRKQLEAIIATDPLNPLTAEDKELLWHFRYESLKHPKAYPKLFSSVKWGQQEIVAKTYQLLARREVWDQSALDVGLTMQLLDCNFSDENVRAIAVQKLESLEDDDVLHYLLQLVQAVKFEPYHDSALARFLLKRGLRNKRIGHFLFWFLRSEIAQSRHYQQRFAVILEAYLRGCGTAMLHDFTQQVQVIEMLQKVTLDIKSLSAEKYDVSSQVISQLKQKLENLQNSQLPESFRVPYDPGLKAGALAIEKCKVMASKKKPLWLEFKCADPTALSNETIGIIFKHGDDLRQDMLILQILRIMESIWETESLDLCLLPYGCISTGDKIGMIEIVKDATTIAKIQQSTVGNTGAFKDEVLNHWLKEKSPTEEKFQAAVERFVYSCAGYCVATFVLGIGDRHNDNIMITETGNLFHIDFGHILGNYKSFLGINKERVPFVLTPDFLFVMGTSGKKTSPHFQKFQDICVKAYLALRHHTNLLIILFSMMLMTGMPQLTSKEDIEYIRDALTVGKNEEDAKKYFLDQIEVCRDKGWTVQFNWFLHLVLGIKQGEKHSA

Question: With `NNC(=O)Nc1nc2c(s1)-c1c(cnn1-c1ccccc1)CC2` as the molecule, how does the pIC50 read?
Answer: Its pIC50 is over 6.10.

Question: `CC(=O)Nc1nc2c(s1)-c1c(cnn1-c1ccccc1Br)C2` was tested. Which pIC50 did it give?
Answer: Its pIC50 is over 6.10.

Question: With `CC(=O)Nc1nc2c(s1)-c1c(cnn1-c1ccc(OC(F)(F)F)cc1)CC2` as the molecule, how does the pIC50 read?
Answer: Its pIC50 is over 6.10.

Question: How did the pIC50 turn out when `CC(=O)Nc1nc2c(s1)-c1c(cnn1-c1ccc(C(=O)N[C@H]3CC[C@H](N(Cc4ccccc4)Cc4ccccc4)CC3)cc1)CC2` was run?
Answer: Its pIC50 is over 6.10.

Question: `CC(=O)Nc1nc2c(s1)-c1nn(-c3ccccc3Cl)c(-c3ccoc3)c1CC2` was tested. Which pIC50 did it give?
Answer: Its pIC50 is over 6.10.

Question: How did the pIC50 turn out when `CC(=O)Nc1nc2c(s1)-c1c(cnn1-c1ccc(C(=O)NCc3nc4ccccc4n3C)cc1)CC2` was run?
Answer: The pIC50 was over 6.10.

Question: With `O=C(NCCn1ccnc1)Nc1nc2c(s1)-c1c(cnn1-c1ccccc1Cl)C2` as the molecule, how does the pIC50 read?
Answer: Its pIC50 is over 6.10.

Question: How did the pIC50 turn out when `CC(=O)Nc1ccc2c(c1)-c1sc(NC(C)=O)nc1CC2` was run?
Answer: Its pIC50 is over 6.10.

Question: How did the pIC50 turn out when `CC(=O)Nc1nc2c(s1)-c1c(c(-c3ccco3)nn1-c1ccc(C(=O)N[C@H]3CC[C@H](N4CCCC4)CC3)cc1Cl)CC2` was run?
Answer: The pIC50 was over 6.10.

Question: How did the pIC50 turn out when `CC(=O)Nc1nc2c(s1)-c1c(cnn1C)CC2` was run?
Answer: Its pIC50 is over 6.10.

Question: How did the pIC50 turn out when `CNC(=O)Nc1nc2c(s1)-c1c(cnn1-c1ccccc1Cl)C2` was run?
Answer: The pIC50 was over 6.10.

Question: `COC(=O)c1nn(-c2ccccc2Cl)c2c1CCc1nc(NC(C)=O)sc1-2` was tested. Which pIC50 did it give?
Answer: Its pIC50 is over 6.10.

Question: `CC(=O)Nc1nc2c(s1)-c1c(cnn1-c1ccccc1C)CC2` was tested. Which pIC50 did it give?
Answer: The pIC50 was over 6.10.

Question: With `CC(=O)Nc1nc2c(s1)-c1nc(-c3ccccc3Cl)ncc1C2` as the molecule, how does the pIC50 read?
Answer: Its pIC50 is over 6.10.

Question: With `COc1ccccc1-n1nc(-c2ccccc2)c2c1-c1sc(NC(C)=O)nc1CC2` as the molecule, how does the pIC50 read?
Answer: The pIC50 was over 6.10.

Question: With `CC(=O)Nc1nc2c(s1)-c1c(cnn1-c1ccc(C(=O)NCC3CC3)cc1)CC2` as the molecule, how does the pIC50 read?
Answer: The pIC50 was over 6.10.

Question: `CC(=O)Nc1nc2c(s1)-c1c(cnn1-c1ccc(C(=O)N[C@H]3CCc4nc(N)sc4C3)cc1Cl)CC2` was tested. Which pIC50 did it give?
Answer: Its pIC50 is over 6.10.

Question: How did the pIC50 turn out when `CC(=O)Nc1nc2c(s1)-c1c(c(-c3ccccc3)nn1-c1ccccc1F)CC2` was run?
Answer: Its pIC50 is over 6.10.

Question: With `CC(=O)Nc1nc2c(s1)-c1c(cnn1-c1ccc(C(=O)N[C@@H](CCCCN)C(N)=O)cc1Cl)CC2` as the molecule, how does the pIC50 read?
Answer: Its pIC50 is over 6.10.

Question: `CC(=O)Nc1nc2c(s1)-c1c(c(C)nn1-c1ccc(Cl)cc1)CC2` was tested. Which pIC50 did it give?
Answer: The pIC50 was over 6.10.

Question: With `CC(=O)Nc1nc2c(s1)-c1c(cnn1-c1ccc(C(=O)N3CCS(=O)(=O)CC3)cc1)CC2` as the molecule, how does the pIC50 read?
Answer: The pIC50 was over 6.10.

Question: How did the pIC50 turn out when `CC(=O)Nc1nc2c(s1)-c1nn(-c3ccccc3Cl)c(-c3cn(C)cn3)c1CC2` was run?
Answer: The pIC50 was over 6.10.

Question: How did the pIC50 turn out when `CNC(=O)Nc1nc2c(s1)-c1c(cnn1-c1ccccc1)CC2` was run?
Answer: The pIC50 was over 6.10.

Question: How did the pIC50 turn out when `CC(=O)Nc1nc2c(s1)-c1c(cnn1-c1ccccc1C)C2` was run?
Answer: The pIC50 was over 6.10.

Question: How did the pIC50 turn out when `O=C(Nc1nc2c(s1)-c1nc(-c3ccccc3)ncc1CC2)N1CCCCC1` was run?
Answer: Its pIC50 is over 6.10.

Question: `CC(=O)Nc1nc2c(s1)-c1c(cnn1-c1ccc(CC(=O)N3CCN(c4ccccn4)CC3)cc1)CC2` was tested. Which pIC50 did it give?
Answer: The pIC50 was over 6.10.

Question: With `CC(=O)Nc1nc2c(s1)-c1c(c(NC(=O)NC(C)C)nn1-c1ccccc1Cl)CC2` as the molecule, how does the pIC50 read?
Answer: The pIC50 was over 6.10.

Question: How did the pIC50 turn out when `CC(=O)Nc1nc2c(s1)-c1c(cnn1-c1ccc(C(=O)N[C@@H](C(N)=O)[C@H](C)O)cc1Cl)CC2` was run?
Answer: The pIC50 was over 6.10.

Question: With `CCCCn1ncc2c1-c1sc(NC(C)=O)nc1CC2` as the molecule, how does the pIC50 read?
Answer: Its pIC50 is over 6.10.

Question: How did the pIC50 turn out when `CC(=O)Nc1nc2c(s1)-c1c(cnn1-c1ccc(C(=O)N[C@H]3CC[C@@H](N4CCCC4)CC3)cc1)CC2` was run?
Answer: Its pIC50 is over 6.10.

Question: How did the pIC50 turn out when `CC(=O)Nc1nc2c(s1)-c1nc(C(C)C)ncc1CC2` was run?
Answer: The pIC50 was over 6.10.

Question: With `CC(=O)Nc1nc2c(s1)-c1nn(-c3ccccc3Br)c(-c3ccco3)c1CC2` as the molecule, how does the pIC50 read?
Answer: The pIC50 was over 6.10.

Question: With `CC(=O)Nc1nc2c(s1)-c1c(cnn1-c1ccc(CC(=O)NCC(=O)N(C)C)cc1)CC2` as the molecule, how does the pIC50 read?
Answer: The pIC50 was over 6.10.

Question: With `CC(=O)Nc1nc2c(s1)-c1c(cnn1-c1ccc(CC(=O)NCc3cccc(C(N)=O)c3)cc1)CC2` as the molecule, how does the pIC50 read?
Answer: Its pIC50 is over 6.10.

Question: With `O=CNc1nc2c(s1)-c1nc(-c3ccccc3)ncc1CC2` as the molecule, how does the pIC50 read?
Answer: The pIC50 was over 6.10.

Question: With `CC(=O)Nc1nc2c(s1)-c1c(c(C(F)(F)F)nn1-c1ccccc1)CC2` as the molecule, how does the pIC50 read?
Answer: Its pIC50 is over 6.10.

Question: With `CC(=O)Nc1nc2c(s1)-c1c(cnn1C(=O)C1CC1)CC2` as the molecule, how does the pIC50 read?
Answer: Its pIC50 is over 6.10.

Question: How did the pIC50 turn out when `C=CCNC(=O)c1ccc(-n2ncc3c2-c2sc(NC(C)=O)nc2CC3)cc1` was run?
Answer: Its pIC50 is over 6.10.

Question: With `CC(=O)Nc1nc2c(s1)-c1c(cnn1-c1ccc(C(=O)N3CCN(c4ccncc4)CC3)cc1)CC2` as the molecule, how does the pIC50 read?
Answer: The pIC50 was over 6.10.

Question: With `CC(=O)Nc1nc2c(s1)-c1c(cnn1-c1ccc(C(=O)Nc3nc4ccccc4[nH]3)cc1)CC2` as the molecule, how does the pIC50 read?
Answer: Its pIC50 is over 6.10.

Question: How did the pIC50 turn out when `CN(C)C(=O)Nc1nc2c(s1)-c1c(cnn1-c1ccccc1)C2` was run?
Answer: Its pIC50 is over 6.10.

Question: With `CC(=O)Nc1nc2c(s1)-c1c(cnn1-c1cc(F)ccc1C)CC2` as the molecule, how does the pIC50 read?
Answer: The pIC50 was over 6.10.

Question: How did the pIC50 turn out when `CC(=O)Nc1nc2c(s1)-c1c(cnn1-c1ccc(CC(=O)NCCCN3CCOCC3)cc1)CC2` was run?
Answer: The pIC50 was over 6.10.

Question: With `CN(C)CCN(C)C(=O)Nc1nc2c(s1)-c1c(cnn1-c1ccccc1)C2` as the molecule, how does the pIC50 read?
Answer: The pIC50 was over 6.10.

Question: `CC(=O)Nc1nc2c(s1)-c1c(cnn1-c1ccc(C(=O)Nc3ccc(C4CCN(C)CC4)cc3)cc1)CC2` was tested. Which pIC50 did it give?
Answer: Its pIC50 is over 6.10.

Question: `CC(=O)Nc1nc2c(s1)-c1c(cnn1-c1ccc(CC(=O)NCc3nc4ccccc4[nH]3)cc1)CC2` was tested. Which pIC50 did it give?
Answer: The pIC50 was over 6.10.

Question: `CC(=O)Nc1nc2c(s1)-c1c(cnn1-c1ccc(C(=O)N3CCc4[nH]cnc4C3)cc1)CC2` was tested. Which pIC50 did it give?
Answer: Its pIC50 is over 6.10.

Question: How did the pIC50 turn out when `CC(=O)Nc1nc2c(s1)-c1c(c(-c3ccco3)nn1-c1ccccc1Cl)CC2` was run?
Answer: Its pIC50 is over 6.10.

Question: With `CC(=O)Nc1nc2c(s1)-c1c(c(-c3ccco3)nn1-c1ccccc1F)CC2` as the molecule, how does the pIC50 read?
Answer: Its pIC50 is over 6.10.

Question: With `CC(=O)Nc1nc2c(s1)-c1c(cnn1-c1ccc(C(=O)N(C)CC(=O)N3CCOCC3)cc1)CC2` as the molecule, how does the pIC50 read?
Answer: The pIC50 was over 6.10.
